Results from patent US20250074892A1, “CARBONYL BRIDGED HETEROCYCLIC COMPOUND, AND COMPOSITION AND APPLICATION THEREOF” (BEIJING SCITECH-MQ PHARMACEUTICALS LIMITED, priority 2022, published 2025).

Legend:
L929 cells = assay: Inhibition of cell necrosis (CCK8 method), L929 cells; assay type: cell-based, mouse; details: 4-8 hours, CCK8
Procedure: (§1) In this assay example 2, under the condition of inducing programmed cell necrosis of HT29 and L929 cell lines, different concentrations of the test compounds were added to test the IC50 of the rescue effect of the test compounds on the programmed necrosis.
(§2) • Compounds: dissolved in DMSO to make a 10 mM solution; • TNF-α: initial concentration of 100 µg/mL; • Z-VAD-FMK: dissolved in DMSO to make a 10 mM solution; • AT-406: dissolved in DMSO to make a 10 mM solution. • Cell lines: HT29 cells were cultured in McCoy's 5A medium containing 10% fetal bovine serum, 100 U/mL penicillin, and 100 µg/mL streptomycin, and L929 cells were cultured in MEM medium containing 10% horse serum, 100 U/mL penicillin, and 100 µg/mL streptomycin.
(§3) 1. The test compound was dissolved in DMSO to form a stock solution, and a gradient dilution was performed; the solution was then diluted with the corresponding culture medium to obtain a solution with 10 times the working concentration.
(§4) 2. The cells in the logarithmic growth phase were diluted with culture medium to a specific cell concentration. 80 µL of the cell suspension was added to a 96-well plate, so that the cell densities of HT29 and L929 were 1.2*10^4 cells/well and 2.0*10^4 cells/well, respectively. The plate was cultured in a 37° C., 5% carbon dioxide incubator overnight.
(§5) 3. […] of the compound solution was added to each well of the 96-well plate inoculated with cells. The compounds to be tested were serially diluted 4-fold to obtain 9 concentrations in duplicate, starting from a maximum concentration of 10 μM. At the same time, a control group without compound addition was set up.
(§6) 4. After the cells were cultured for another 30 minutes, 10 μL of the inducer mixture was added to each well. The final concentrations of Human TNF-α, AT-406 and Z-VAD-FMK in HT29 cells were 20 ng/mL, […] and 20 μM, respectively; and the final concentrations of Murine TNF-α and Z-VAD-FMK in L929 cells were 20 ng/mL and 25 μM, respectively.
(§7) 5. The 96-well plate in which compounds and inducer were added was placed in a 37° C., 5% carbon dioxide incubator for further culture, wherein HT29 cells were cultured for 16 hours and L929 cells were cultured for 4-8 hours. Cell viability was detected by CCK8. GraphPad Prism software was used to prepare a dose-effect curve and IC50 was calculated.

HT29 cells = assay: Inhibition of cell necrosis (CCK8 method), HT29 cells; assay type: cell-based, human; details: Homo sapiens, HT-29, 16 h, HT29, Human TNF-α/AT-406/Z-VAD-FMK, 16 hours, CCK8
Procedure: as §1, §2, §3, §4, §5, §6, §7

[1] = Mus musculus, L929, L929, Murine TNF-α/Z-VAD-FMK

Compound `CC(C)(O)CCOc1ccc(F)c(-c2ccnc(N3CCC(C(=O)N4N=CCC4c4cc(F)cc(F)c4)CC3)c2)c1` (racemic) [Example 21, (5-(3,5-difluorophenyl)-4,5-dihydro-1H-pyrazol-1-yl)(1-(4-(2-fluoro-5-(3-hydroxy-3-methylbutoxy)phenyl)pyridin-2-yl)piperidin-4-yl)methanone] has an IC50 (L929 cells; [1]) of 10 to 50 nM and an IC50 (HT29 cells) of no more than 10 nM.
Work on `CC(C)(O)COc1ccc(F)c(-c2ccnc(N3CCC(C(=O)N4N=CCC4c4cc(F)cc(F)c4)CC3)c2)c1` (racemic) [Example 23, (5-(3,5-difluorophenyl)-4,5-dihydro-1H-pyrazol-1-yl)(1-(4-(2-fluoro-5-(2-hydroxy-2-methylpropoxy)phenyl)pyridin-2-yl)piperidin-4-yl)methanone] yielded an IC50 (L929 cells; [1]) of no more than 10 nM and an IC50 (HT29 cells) of no more than 10 nM.
In the case of `CC(C)(O)CCCOc1ccc(F)c(-c2ccnc(N3CCC(C(=O)N4N=CCC4c4cc(F)cc(F)c4)CC3)c2)c1` (racemic) [Example 24, (5-(3,5-difluorophenyl)-4,5-dihydro-1H-pyrazol-1-yl)(1-(4-(2-fluoro-5-((4-hydroxy-4-methylpentyl)oxy)phenyl)pyridin-2-yl)piperidin-4-yl)methanone], the IC50 (L929 cells; [1]) is reported as 10 to 50 nM and the IC50 (HT29 cells) is reported as no more than 10 nM.
In the case of `CC(C)(O)CCOc1ccc(F)c(-c2ccnc(N3CCC(C(=O)N4N=CC[C@H]4c4cc(F)cc(F)c4)CC3)c2)c1` (racemic) [Example 41], the IC50 (L929 cells; [1]) is reported as 10 to 50 nM and the IC50 (HT29 cells) is reported as no more than 10 nM.
`CC(C)(O)CCCOc1ccc(F)c(-c2ccnc(N3CCC(C(=O)N4N=CC[C@H]4c4cc(F)cc(F)c4)CC3)c2)c1` (racemic) [Example 43] showed an IC50 (L929 cells; [1]) of 10 to 50 nM and an IC50 (HT29 cells) of no more than 10 nM.
`COCCOc1cccc(-c2ccnc(N3CCC(C(=O)N4N=CCC4c4cc(F)cc(F)c4)CC3)c2)c1` (stereo not shown) [Example 1, (5-(3,5-difluorophenyl)-4,5-dihydro-1H-pyrazol-1-yl)(1-(4-(3-(2-methoxyethoxy)phenyl)pyridin-2-yl)piperidin-4-yl)methanone] showed an IC50 (L929 cells; [1]) of 50 to 100 nM and an IC50 (HT29 cells) of 10 to 50 nM.
Work on `COCCCOc1cccc(-c2ccnc(N3CCC(C(=O)N4N=CCC4c4cc(F)cc(F)c4)CC3)c2)c1` (stereo not shown) [Example 2, (5-(3,5-difluorophenyl)-4,5-dihydro-1H-pyrazol-1-yl)(1-(4-(3-(3-methoxypropoxy)phenyl)pyridin-2-yl)piperidin-4-yl)methanone] yielded an IC50 (L929 cells; [1]) of 50 to 100 nM and an IC50 (HT29 cells) of 10 to 50 nM.
For `O=C(C1CCN(c2cc(-c3cccc(OC4CCOCC4)c3)ccn2)CC1)N1N=CCC1c1cc(F)cc(F)c1` (stereo not shown) [Example 3, (5-(3,5-difluorophenyl)-4,5-dihydro-1H-pyrazol-1-yl)(1-(4-(3-((tetrahydro-2H-pyran-4-yl)oxy)phenyl)pyridin-2-yl)piperidin-4-yl)methanone], the IC50 (L929 cells; [1]) was 50 to 100 nM and the IC50 (HT29 cells) was 10 to 50 nM.
`COCCOc1ccc(C)c(-c2ccnc(N3CCC(C(=O)N4N=CCC4c4cc(F)cc(F)c4)CC3)c2)c1` (stereo not shown) [Example 4, (5-(3,5-difluorophenyl)-4,5-dihydro-1H-pyrazol-1-yl)(1-(4-(5-(2-methoxyethoxy)-2-methylphenyl)pyridin-2-yl)piperidin-4-yl)methanone] was tested, and the IC50 (L929 cells; [1]) was 10 to 50 nM and the IC50 (HT29 cells) was 10 to 50 nM.
For `COCCCOc1ccc(C)c(-c2ccnc(N3CCC(C(=O)N4N=CCC4c4cc(F)cc(F)c4)CC3)c2)c1` (stereo not shown) [Example 5, (5-(3,5-difluorophenyl)-4,5-dihydro-1H-pyrazol-1-yl)(1-(4-(5-(3-methoxypropoxy)-2-methylphenyl)pyridin-2-yl)piperidin-4-yl)methanone], the IC50 (L929 cells; [1]) was 50 to 100 nM and the IC50 (HT29 cells) was 10 to 50 nM.
For `Cc1ccc(OC2CCOCC2)cc1-c1ccnc(N2CCC(C(=O)N3N=CCC3c3cc(F)cc(F)c3)CC2)c1` (stereo not shown) [Example 6, (5-(3,5-difluorophenyl)-4,5-dihydro-1H-pyrazol-1-yl)(1-(4-(2-methyl-5-((tetrahydro-2H-pyran-4-yl)oxy)phenyl)pyridin-2-yl)piperidin-4-yl)methanone], the IC50 (L929 cells; [1]) was 50 to 100 nM and the IC50 (HT29 cells) was 10 to 50 nM.
`O=C(C1CCN(c2cc(-c3cccc(OCCCCO)c3)ccn2)CC1)N1N=CCC1c1cc(F)cc(F)c1` (stereo not shown) [Example 7, (5-(3,5-difluorophenyl)-4,5-dihydro-1H-pyrazol-1-yl)(1-(4-(3-(4-hydroxybutoxy)phenyl)pyridin-2-yl)piperidin-4-yl)methanone] was tested, and the IC50 (L929 cells; [1]) was 10 to 50 nM and the IC50 (HT29 cells) was 10 to 50 nM.
Compound `CC(C)(O)CCCOc1cccc(-c2ccnc(N3CCC(C(=O)N4N=CCC4c4cc(F)cc(F)c4)CC3)c2)c1` (stereo not shown) [Example 8, (5-(3,5-difluorophenyl)-4,5-dihydro-1H-pyrazol-1-yl)(1-(4-(3-((4-hydroxy-4-methylpentyl)oxy)phenyl)pyridin-2-yl)piperidin-4-yl)methanone] has an IC50 (L929 cells; [1]) of 10 to 50 nM and an IC50 (HT29 cells) of 10 to 50 nM.
`Cc1ccc(OCCCCO)cc1-c1ccnc(N2CCC(C(=O)N3N=CCC3c3cc(F)cc(F)c3)CC2)c1` (stereo not shown) [Example 9, (5-(3,5-difluorophenyl)-4,5-dihydro-1H-pyrazol-1-yl)(1-(4-(5-(4-hydroxybutoxy)-2-methylphenyl)pyridin-2-yl)piperidin-4-yl)methanone] gave an IC50 (L929 cells; L929, Murine TNF-α/Z-VAD-FMK) of 10 to 50 nM and an IC50 (HT29 cells) of 10 to 50 nM.
`Cc1ccc(OCCCC(C)(C)O)cc1-c1ccnc(N2CCC(C(=O)N3N=CCC3c3cc(F)cc(F)c3)CC2)c1` (stereo not shown) [Example 10, (5-(3,5-difluorophenyl)-4,5-dihydro-1H-pyrazol-1-yl)(1-(4-(5-((4-hydroxy-4-methylpentyl)oxy)-2-methylphenyl)pyridin-2-yl)piperidin-4-yl)methanone] gave an IC50 (L929 cells; [1]) of no more than 10 nM and an IC50 (HT29 cells) of no more than 10 nM.
For `Cc1ccc(OCCC2CCOCC2)cc1-c1ccnc(N2CCC(C(=O)N3N=CCC3c3cc(F)cc(F)c3)CC2)c1` (stereo not shown) [Example 11, (5-(3,5-difluorophenyl)-4,5-dihydro-1H-pyrazol-1-yl)(1-(4-(2-methyl-5-(2-(tetrahydro-2H-pyran-4-yl)ethoxy)phenyl)pyridin-2-yl)piperidin-4-yl)methanone], the IC50 (L929 cells; [1]) was 50 to 100 nM and the IC50 (HT29 cells) was 10 to 50 nM.
`O=C(C1CCN(c2cc(-c3cccc(OCCCO)c3)ccn2)CC1)N1N=CCC1c1cc(F)cc(F)c1` (stereo not shown) [Example 12, (5-(3,5-difluorophenyl)-4,5-dihydro-1H-pyrazol-1-yl)(1-(4-(3-(3-hydroxypropoxy)phenyl)pyridin-2-yl)piperidin-4-yl)methanone] was tested, and the IC50 (L929 cells; [1]) was 50 to 100 nM and the IC50 (HT29 cells) was no more than 10 nM.
For `COCCCCOc1cccc(-c2ccnc(N3CCC(C(=O)N4N=CCC4c4cc(F)cc(F)c4)CC3)c2)c1` (stereo not shown) [Example 13, (5-(3,5-difluorophenyl)-4,5-dihydro-1H-pyrazol-1-yl)(1-(4-(3-(4-methoxybutoxy)phenyl)pyridin-2-yl)piperidin-4-yl)methanone], the IC50 (L929 cells; [1]) was 50 to 100 nM and the IC50 (HT29 cells) was 10 to 50 nM.
In the case of `O=C(C1CCN(c2cc(-c3cccc(OCC4CCOCC4)c3)ccn2)CC1)N1N=CCC1c1cc(F)cc(F)c1` (stereo not shown) [Example 14, (5-(3,5-difluorophenyl)-4,5-dihydro-1H-pyrazol-1-yl)(1-(4-(3-((tetrahydro-2H-pyran-4-yl)methoxy)phenyl)pyridin-2-yl)piperidin-4-yl)methanone], the IC50 (L929 cells; [1]) is reported as 10 to 50 nM and the IC50 (HT29 cells) is reported as 10 to 50 nM.
Work on `Cc1ccc(OCCCO)cc1-c1ccnc(N2CCC(C(=O)N3N=CCC3c3cc(F)cc(F)c3)CC2)c1` (stereo not shown) [Example 15, (5-(3,5-difluorophenyl)-4,5-dihydro-1H-pyrazol-1-yl)(1-(4-(5-(3-hydroxypropoxy)-2-methylphenyl)pyridin-2-yl)piperidin-4-yl)methanone] yielded an IC50 (L929 cells; [1]) of 10 to 50 nM and an IC50 (HT29 cells) of no more than 10 nM.
`COCCOc1ccc(Cl)c(-c2ccnc(N3CCC(C(=O)N4N=CCC4c4cc(F)cc(F)c4)CC3)c2)c1` (stereo not shown) [Example 16, (1-(4-(2-chloro-5-(2-methoxyethoxy)phenyl)pyridin-2-yl)piperidin-4-yl)(5-(3,5-difluorophenyl)-4,5-dihydro-1H-pyrazol-1-yl)methanone] showed an IC50 (L929 cells; [1]) of 50 to 100 nM and an IC50 (HT29 cells) of 10 to 50 nM.
Work on `O=C(C1CCN(c2cc(-c3cc(OCCCO)ccc3Cl)ccn2)CC1)N1N=CCC1c1cc(F)cc(F)c1` (stereo not shown) [Example 17, (1-(4-(2-chloro-5-(3-hydroxypropoxy)phenyl)pyridin-2-yl)piperidin-4-yl)(5-(3,5-difluorophenyl)-4,5-dihydro-1H-pyrazol-1-yl)methanone] yielded an IC50 (L929 cells; [1]) of 50 to 100 nM and an IC50 (HT29 cells) of 10 to 50 nM.
`COCCOc1ccc(C)c(-c2ccnc(N3CCC(C(=O)N4N=CCC4c4ccccc4F)CC3)c2)c1` (stereo not shown) [Example 19, (5-(2-fluorophenyl)-4,5-dihydro-1H-pyrazol-1-yl)(1-(4-(5-(2-methoxyethoxy)-2-methylphenyl)pyridin-2-yl)piperidin-4-yl)methanone] gave an IC50 (L929 cells; [1]) of 10 to 50 nM and an IC50 (HT29 cells) of no more than 10 nM.
